Measured values published in PMC4389225, “Triaminopyrimidine is a fast-killing and long-acting antimalarial clinical candidate” (Nature Communications, 2015).
Like-named read-outs stand apart in the source and are kept apart here.

Legend:
[1] = target: T1, acetylcholine esterase (AChE) (Homo sapiens, UniProt P22303); assay: AChE enzyme activity assay (CEREP); assay type: biochemical
T1 construct: purchased CEREP, France (external assay service) 0363
Description: An in vitro pharmacological profiling panel was specifically designed for the detection of potential high- risk clinical adverse drug reactions. The panel comprised of 26 diverse targets (6 enzymes, 2 transporters, 9 G-protein-coupled receptors (GPCRs), 5 ion channels along with hERG, M2, alpha1A and AchE) and was conduced externally by CEREP, France […]. […] Detailed methodology for in vitro pharmacological profiling assays provided by CEREP can be found at http://www.cerep.fr, with specific reference to the AChE (cat. no. 0363), Muscarinic M1 receptor (cat. no. 0091) and Adrenergic α1A receptor (cat. no. 2338) assays. For enzyme and kinase assays, the results were expressed as a percent inhibition of control-specific activity obtained in the presence of the test compound. The IC50 values (concentration causing a half-maximal inhibition of control-specific activity) and Hill coefficients (nH) were determined by nonlinear regression analysis of the inhibition/concentration–response curves using Hill equation curve fitting as described earlier.

[2] = Acute anaesthetised guinea pig CVS model, compound 2; assay type: in vivo
Description: Protein binding (human free)
Guinea Pig Study: Anaesthetised guinea pigs (n=2) were treated with compound 2 at 5 mg/kg followed by 15 mg/kg (AstraZeneca, Alderley Park, UK) using methodology based on that used to assess compound 12 at Biotrial, France. Haemodynamic and electrocardiography […]
achieved with compound 2 in an early mouse model once exposures reached approximately 9 μM Cmax (total). Consequently, compound 2 was classified as having no therapeutic window preclinically in this model. […]

[3] = Plasma protein binding, human; conditions: for fraction unbound: human, plasma
[4] = test system: Ion channel; assay: Secondary pharmacology panel, target #2
[5] = test system: Ion channel; assay: Secondary pharmacology panel, target #5
[6] = test system: GPCR; assay: Secondary pharmacology panel, target #6
[7] = test system: GPCR; assay: Secondary pharmacology panel, target #9
[8] = test system: GPCR; assay: Secondary pharmacology panel, target #12
[9] = test system: Ion channel; assay: Secondary pharmacology panel, target #17
[10] = test system: Ion channel; assay: Secondary pharmacology panel, target #21
[11] = test system: GPCR; assay: Secondary pharmacology panel, target #22
[12] = test system: Enzyme; assay: Secondary pharmacology panel, target #23
[13] = test system: Cpd 4 Unpublished Target; assay: [3H]-hypoxanthine incorporation assay, Cpd 4 Unpublished Target resistant; assay type: cell-based; conditions: Plasmodium falciparum
Description: Supplementary Table 3: Compound 9 and 12 retain their activity against Pf strains harbouring mutations to novel antimalarial agents in clinical development. Compound 9 and 12 were tested for their antiplasmodial activity against a panel of Pf strains known to harbour mutations conferring resistance to novel agents under clinical development. Parasite growth inhibition is measured using the [3H]-hypoxanthine incorporation assay. IC50s are established for each strain (n ≥2) and compared to the IC50 of Dd2 (standard pan-resistant […]

[14] = Hepatocyte Clint, dog; assay type: in vitro ADME; conditions: for Predicted blood CL: Dog
Excerpt: (§1) Supplementary Note 5: Prediction of human clearance for compound 12 by IVIVE.
(§2) Human clearance (CL) was predicted by in vitro-in vivo extrapolation (IVIVE) from the in vitro Clint in human hepatocytes6. In vitro Clint was scaled to in vivo Clint as follows:
(§3) Clint in vivo = Clint in vitro * scaling factors * fublood/fuinc
(§4) The liver weights used for scaling were 40, 32 and 24 g/kg body weight in rat, dog and human respectively. Hepatocellularity used for scaling was 163, 169 and 120 (X 106) cells/g liver in rat, dog and human respectively. Free fraction in blood was calculated as fuplasma /Blood:Plasma (BP) ratio. BP ratio and free fraction in the hepatocyte incubation mix, fuinc, were measured in vitro. Slope and intercept from the linear regression analysis of IVIVC for a large number of AstraZeneca compounds was applied for final correction in the scaled in vivo Clint. A well stirred model was used for CL prediction.
(§5) Where Qh is the liver blood flow. The values of Qh in rat, dog and human are 72, 55 and 20 mL.min-1kg-1 in rat, dog and human, respectively. In vitro parameters, observed in vivo CL and predicted CL are shown in supplementary Table 10. […]
(§6) (also on this page, place not known: in vivo in vivo CLintQ CLintQCL Predicted predicted predicted h h + ×=)
(§7) (1 picture or pasted object on this page, not shown here)

[15] = Hepatocyte Clint, human; assay type: in vitro ADME; conditions: hepatocytes
Excerpt: as §1, §2, §3, §4, §5, §6, §7

[16] = Binding Ki / Enzyme IC50, Target #3, AChE

T1 sequence (P22303 32-614): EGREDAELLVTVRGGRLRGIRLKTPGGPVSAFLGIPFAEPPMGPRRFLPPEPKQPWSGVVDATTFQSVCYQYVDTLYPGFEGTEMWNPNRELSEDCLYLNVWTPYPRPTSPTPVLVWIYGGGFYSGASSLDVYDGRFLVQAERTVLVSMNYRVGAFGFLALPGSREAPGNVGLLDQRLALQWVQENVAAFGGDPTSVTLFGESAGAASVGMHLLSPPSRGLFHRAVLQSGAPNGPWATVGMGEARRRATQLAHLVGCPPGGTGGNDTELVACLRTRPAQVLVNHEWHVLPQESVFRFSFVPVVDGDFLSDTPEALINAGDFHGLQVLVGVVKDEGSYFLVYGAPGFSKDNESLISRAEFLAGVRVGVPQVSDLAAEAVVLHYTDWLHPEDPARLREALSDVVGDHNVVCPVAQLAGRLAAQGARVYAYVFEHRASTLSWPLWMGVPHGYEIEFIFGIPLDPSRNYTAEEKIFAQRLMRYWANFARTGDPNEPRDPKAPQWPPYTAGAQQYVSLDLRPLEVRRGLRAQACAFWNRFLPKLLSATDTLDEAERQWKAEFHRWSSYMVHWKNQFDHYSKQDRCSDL

Structure (SMILES) | IC50 [1, 16] [µM] | IC50 ([1]; read-out: AChE IC50) [µM] | fraction unbound [3] | Binding Ki / Enzyme IC50 [4] [µM] | Binding Ki / Enzyme IC50 [5] [µM] | Binding Ki / Enzyme IC50 [6] [µM] | Binding Ki / Enzyme IC50 [7] [µM] | Binding Ki / Enzyme IC50 [8] [µM] | Binding Ki / Enzyme IC50 [9] [µM] | Binding Ki / Enzyme IC50 [10] [µM] | Binding Ki / Enzyme IC50 [11] [µM] | Binding Ki / Enzyme IC50 [12] [µM] | further results
Cc1cc(Nc2ncc(N3CCN(C)CC3)c(N3CCCC3)n2)ccn1 [compound 2] | 0.179 | 0.16 | 0.402 | 0.933 | 3.64 | 2.695 | > 100 | 30.45 | 59 | > 100 | > 100 | > 100 | Selectivity ratio for AChE (IC50 / blood Cmin at ED90 in the Pf/SCID model) [1]: < 1; A - Plasma Cmax Total ([2]; 5 mg/kg i.v.): 4.53 µM; Safety Margin (A / B) ([2]; 5 mg/kg i.v.): None; Summary of clinical signs and effects ([2]; 5 mg/kg i.v.): Haemodynamic Effects; A - Plasma Cmax Total ([2]; 15 mg/kg i.v.): 20.42 µM; Safety Margin (A / B) ([2]; 15 mg/kg i.v.): None; Summary of clinical signs and effects ([2]; 15 mg/kg i.v.): Haemodynamic & ECG Effects
Cc1nc(Nc2ncc(N3CCN(C)[C@H](C)C3)c(Nc3cc(C)n(C)n3)n2)cc(C2CC2)c1F [compound 12, (R)-N2-(4-cyclopropyl-5-fluoro-6-methylpyridin-2-yl)-N4-(1,5-dimethyl-1H-pyrazol-3-yl)-5-(3,4-dimethylpiperazin-1-yl)pyrimidine-2,4-diamine] | 78 | > 75 | 0.025 | 2.62 | 8.58 | 7.82 | 2.21 | 10.9 | > 100 | > 100 | > 100 | > 100 | selectivity against AChE ([1]; relative to Pf potency): > 1,000 fold; IC50 [13]: 0.0082 µM; Predicted blood CL [14]: 38 % LBF; Predicted blood CL ([14]; IVIVC from hepatocyte Clint): 20.8 mL/min/kg; hepatocyte CLint ([14]; dog, hepatocytes): 9.3 µL/min/1e6 cells; hepatocyte CLint [15]: 3.1 µL/min/1e6 cells; Plasma protein binding (% free) ([3]; Human): 2.5 % free; Protein binding (human free) ([3]; Human): 2.5%; reduction in free fraction ([3]; compound 12 versus compound 2): 10 fold
